In patent US20080262080A1, “Allergy Suppressive Agent” (KYUSHU UNIVERSITY, NATIONAL UNIVERSITY CORPORATION, priority 2004, published 2008):

Columns and labels:
[1] = system: high-affinity IgE receptor (FcεRI); test: FcεRI expression amount on the cell surface of KU812 cells by flow cytometry; format: cell-based, human; conditions: for FcεRI expression suppressive rate (%): 24 hours
Experimental: By using antihuman FcRI antibody (CRA1), the FcεRI expression amount on the surface of human basophil-like cell line KU812 cells was analyzed by flow cytometry. Cells having been incubated by adding DMSO alone were compared with cells having been incubated by adding chrysin. The ratio of overexpression of FcεRI is indicated in percentage. As a basal medium for incubating cells, use was made of RPMI 1640 (Nissui, Japan), to which 100 U/mL of penicillin (Meiji Pharmaceutical Company, Tokyo, Japan), […] of streptomycin (Meiji Pharmaceutical Company, Tokyo, Japan), 12.5 mM of MaHCO3 (Wako Pure Chemical Industries, Osaka, Japan) and 10 mM of HEPES Wako Pure Chemical Industries) had been added. Fetal bovine serum (FBS) purchased form Bio Source International was added to the basal medium to give a concentration of 5 to 10%. Human basophil-like cell line KU812 employed in this experiment was assigned by Japan Collection of Research Bioresources (JCRB) and subcultured and maintained in RPMI 1640 medium comprising 5 to 10% of FBS at 37° C. in 5% CO2 gas under humidification. KU812 cells were incubated in RPMI 1640 medium, to which chrysin dissolved in DMSO had been added, for 0 to 24 hours. A system wherein the cells were incubated in the medium comprising DMSO alone was used as a control. After incubating, the cells were collected and incubated in 5% FBS-PBS, to which 10 μg/mL of antihuman FcεRI α chain mouse monoclonal antibody CRA-1 (Kyokuto Pharmaceutical) had been added, at 4° C. for 40 to 60 min. As a negative control, 10 μg/mL of mouse control IgG2b antibody (DAKO) was used. Then, the cells were washed with ice-cooled PBS once and incubated in 5% FBS-PBS, to which 10 μg/mL of antimouse IgG2b FITC-labeled antibody (Protos Immunoresearch) had been added, at 4° C. for 40 to 60 min. After incubating, the cells were washed with PBS and then resuspended in PBS. The cell suspension thus obtained was analyzed by flow cytometry. In the flow cytometry analysis, FACS Calibur (Becton Sickinson, Sunnyvale, Calif.) was employed. The secondary antibody reaction and the subsequent procedures were conducted in the dark and the cells were preserved on ice while conducting the analysis. KU812 cells (5×10^5 cells/mL) was incubated in 5% bovine fetal serum comprising RPMI 1640 medium, to which chrysin (0, 1, 5 and 10 μM) and apigenin (purchased from Aldrich Chem. Co., St. Louis, Mo.; 0, 1, 5 and 10 μM) had been added, for 24 hours. After incubating, the FcεRI expression level on the cell surface was measured by flow cytometry (experimental procedure: see [0047]).

[2] = system: blood antibody level (IgM, IgG, IgA, IgE); test: Blood antibody level of mice antigen-sensitized with ovalbumin (OVA) after chrysin intake (ELISA); format: in vivo, mouse
Experimental: Male BALB/c mice aged 8 weeks were divided into an AIN-93M-fed group (a control group) and a chrysin-comprising AIN-93M-fed group. After feeding with the individual feeds for 3 weeks, both groups were fed with the AIN-93M feed for 2 weeks. Each feed was given at a ratio of 5 g/day/animal while the animals were allowed to take water ad libitum. OVA-sensitization was conducted by injecting 100 μg of OVA/aluminum hydroxide gel into the peritoneal cavity of each mouse 1 and 2 weeks after the initiation of the feed, i.e., twice in total. On day 35, blood samples were collected and the total IgM, IgG and IgE levels in the serum were measured by ELISA. Reagents employed in ELISA for quantifying the antibody were as follows. In blocking, use was made of PBS comprising 1% of bovine serum albumin (Roche) (BSA-PBS). As solid phase antibodies, use was made of F(ab′)2 goat anti-mouse IgG antibody (Zymed Laboratories, Inc.), F(ab′)2 rabbit anti-mouse IgM antibody (Zymed Laboratories, Inc.) and rabbit anti-mouse IgA (Zymed Laboratories, Inc.). As secondary antibodies, use was made of HRP-labeled F(ab′)2 goat anti-mouse IgG(H(L) antibody (Zymed Laboratories, Inc.), HRP-labeled rabbit anti-mouse IgM antibody (Zymed Laboratories, Inc.) and HRP-labeled goat anti-mouse IgA antibody (Zymed Laboratories, Inc.). 2,2′-Anizo-bis(3-ethylbenzothiazoline-6-sulfonic acid) diammonium salt (ABTS) employed as a color development substrate was purchased from Wako Pure Chemical Industries, while oxalic acid was purchased from Nacalai tesque (Kyoto, Japan). A solid phase antibody solution (diluted 1000-fold with a 50 mM carbonate buffer) was pipetted into an immunoplate at a ratio of 100 μL/well and allowed to stand overnight at 4° C. After washing thrice with PBS comprising 0.1% of polyoxyethylene sorbitan monolaurate (Nacalai tesque) (TPBS), 300 μL/well of BSA-PBS was pipetted and incubation was conducted for 2 hours at 37° C. After washing thrice with TPBS, a sample and a standard solution, which were optionally diluted with BSA-PBS, were added at a ratio of 50 μL/well and allowed to stand overnight at 4° C. After washing thrice with TPBS, 100 μL/well of a secondary antibody solution (diluted 2000-fold with BSA-PBS) was pipetted and incubation was conducted for 1 hour at 37° C. After washing thrice with TPBS, 100 μL/well of a color development substrate solution was pipetted and color development was carried out. Then, 100 μL/well of oxalic acid was pipetted to cease the reaction and the absorbance was measured at 415 to 490 nm. As the color development substrate solution, a mixture of a 0.006% H2O2— comprising 0.2 M citrate buffer (pH 4.0), deionized water and a 10.94 mM ABTS solution (10:9:1) was employed. In the case of IgE, the procedure indicated in the protocol attached to a mouse IgE assay kit (Morinaga Biochemistry Lab.) was followed. Absorbance was measured using Immuno Mini NJ-2300 (Nippon Intermed).

[3] = serum, day 35, BALB/c mice OVA-sensitized, chrysin-comprising feed 3 weeks

SMILES: O=c1cc(-c2ccccc2)oc2cc(O)cc(O)c12 [Chrysin, 5,7-dihydroxyflavone]
- FcεRI expression amount on cell surface ([1]; flow cytometry with CRA1 antibody, compared with DMSO alone): lowering
- FcεRI expression suppressive rate (%) ([1]; single agent 1 μM): 0%
- FcεRI expression suppressive rate (%) ([1]; single agent 5 μM): 11.5%
- FcεRI expression suppressive rate (%) ([1]; single agent 10 μM): 19.8%
- blood IgE level compared with the control group ([2]; OVA-sensitized mice, in words): significantly lowered
- effect of chrysin intake on blood IgM, IgG and IgA levels ([2]; OVA-sensitized mice, in words, vs control group): no effect
- IgA [2, 3]: 0.6 ± 0.0 mg/mL
- IgG [2, 3]: 23.5 ± 3.0 mg/mL
- IgM [2, 3]: 5.4 ± 0.2 mg/mL
